Results from patent US8389571B2, “Benzofuran derived HIV protease inhibitors” (Sequoia Pharmaceuticals, Inc., priority 2007, dated 2013).

Tests used:
HIV protease (wt) = biological target: T1, HIV protease (wt) (Human immunodeficiency virus type 1 group M subtype B, UniProt P04585); assay: HIV protease inhibitory activity, wild type; format: biochemical
T1 construct: over 45 of the 99 amino acids of the HIV protease monomer

HIV protease Mutant 9 = HIV protease Mutant 9 (Human immunodeficiency virus type 1, UniProt P04585); assay: HIV protease inhibitory activity, Mutant 9; format: biochemical; conditions: Mutant 9 protease
HIV protease Mutant 8 = HIV protease Mutant 8 (Human immunodeficiency virus type 1, UniProt P04585); assay: HIV protease inhibitory activity, Mutant 8; format: biochemical; conditions: Mutant 8 protease
HIV-1 WT = assay: Antiviral activity, in vitro drug sensitivity of HIV-1 isolates, WT; format: cell-based; conditions: Human immunodeficiency virus 1
Protocol: (§1) In Vitro Drug Sensitivity of HIV-1 Laboratory Isolates to PIs
(§2) The sensitivities of HIV-1 isolates against compounds of the invention were determined as previously described with minor modifications (Shiraska et al., Proc. Natl. Acad. Sci. USA, 92, 2398-2402 (1995)).

HIV-1 Mutant 9 = assay: Antiviral activity, in vitro drug sensitivity of HIV-1 isolates, Mutant 9; format: cell-based; conditions: Human immunodeficiency virus 1, read-out: Antiviral activity IC50 Mutant 9
Protocol: as §1, §2

HIV-1 Mutant 8 = assay: Antiviral activity, in vitro drug sensitivity of HIV-1 isolates, Mutant 8; format: cell-based; conditions: Human immunodeficiency virus 1, read-out: Antiviral activity IC50 Mutant 8
Protocol: as §1, §2

[1] = In vivo bioavailability, rat; conditions: 20 mg/kg p.o.
[2] = rat, oral administration; Miller et al., Bioorg Med Chem Lett. 1788-94 (2006); cited from earlier work

For Cc1nc(COc2ccc(C[C@H](NC(=O)O[C@H]3CO[C@H]4OCC[C@H]43)[C@H](O)CN(CC(C)C)S(=O)(=O)c3ccc4occc4c3)cc2)cs1 [Compound D], the Ki (HIV protease (wt)) was < 0.05 nM, the Ki (HIV protease Mutant 9) was 0.055 nM and the Ki (HIV protease Mutant 8) was < 0.05 nM. For the same compound, the IC50 (HIV-1 WT) was 1.4 nM, the IC50 (HIV-1 Mutant 9) was 32 nM and the IC50 (HIV-1 Mutant 8) was 4.2 nM. The “AUC (0-12)” value [1] was 11 ugxh/mL, the Cmax ([1]; in vivo, po) was 3.51 µM and the Tmax ([1]; in vivo, po) was 39.6 min. It also gave a bioavailability ([1]; in vivo, po) of 92%.
For Cc1nc(COc2ccc(C[C@H](NC(=O)O[C@H]3CO[C@H]4OCC[C@H]43)[C@H](O)CN(CC(C)C)S(=O)(=O)c3ccc4c(c3)OCO4)cc2)cs1 [GW0385, reference compound], the Ki (HIV protease (wt)) was 0.1 nM, the Ki (HIV protease Mutant 9) was 0.13 nM and the Ki (HIV protease Mutant 8) was < 0.05 nM. For the same compound, the IC50 (HIV-1 WT) was 0.8 nM, the IC50 (HIV-1 Mutant 9) was 42 nM and the IC50 (HIV-1 Mutant 8) was 3.2 nM. For the same compound, the “% F” value [2] was 10%.
